Paper PMC11354745, “Discovery of Novel Amino Acids (Analogues)-Substituted Thiophene[3,2-d]pyrimidine Derivatives as Potent HIV-1 Non-Nucleoside Reverse Transcriptase Inhibitors: Design, Synthesis, and Biological Evaluation” (International Journal of Molecular Sciences, 2024)
Where two headings read alike, the source gives them in different places.

Assays:
[1] = tested on: HIV-1 wild-type (WT) strain (IIIB); experiment: Anti-HIV activity in MT-4 cells (MTT method), HIV-1 IIIB; type: cell-based; details: for EC50: Human immunodeficiency virus 1, IIIB, MT4, read-out: EC50 IIIB; for SI IIIB: selectivity index, ratio CC50/EC50, IIIB
Description: (§1) All the target compounds were first evaluated for their antiviral activity against HIV-1 wild-type (WT) strain (IIIB) and the double-mutant strain K103N+Y181C (RES056) in the MT-4 cell line, using the MTT method.
(§2) The antiviral potential and cytotoxic effects of the target compounds were assessed using the MTT assay in MT-4 cells, following established protocols. The HIV-1 (IIIB) strain, single mutant strains (L100I, K103N, Y181C, Y188L and E138K), double mutant strains (F227L + V106A and K103N + Y181C) and MT-4 cells were provided by the Rega Institute of Medicine at the University of Leuven, Belgium. These viral strains were propagated in MT-4 cells. […] The specific experimental procedures are detailed below.
(§3) Initially, concentrated solutions of the test compounds were prepared at 10-fold the final desired concentration and added to triplicate wells in 25 µL aliquots to assess their impacts on both mock and HIV-infected MT-4 cells. Using a Biomek 3000 robot, these were diluted in a 96-well flat-bottomed microplate by mixing with medium, creating a series of 5-fold steps down in concentration. Each test included control groups of untreated infected and mock-infected cells to establish baselines for comparison. […] These strains served to mimic both typical and resistant infections. Additionally, mock-infected wells received an equal volume of culture medium to assess the compounds’ impacts on uninfected cells, thereby determining cytotoxicity. MT-4 cells in the exponential growth phase were pelleted by centrifugation at 1000 rpm for 5 min, after which the supernatant was removed. The cells were resuspended to a density of 6 × 10^5 cells/mL, and 50 µL of this suspension was added to each well. Post-infection, on the fifth day, cell viability in both mock and infected conditions was measured via the MTT assay using a spectrophotometer.

[2] = tested on: HIV-1 L100I mutant strain; experiment: Anti-HIV activity in MT-4 cells (MTT method), L100I; type: cell-based; details: Human immunodeficiency virus 1, MT4, read-out: EC50 L100I
Source text: (§4) All the target compounds were first evaluated for their antiviral activity against HIV-1 wild-type (WT) strain (IIIB) and the double-mutant strain K103N+Y181C (RES056) in the MT-4 cell line, using the MTT method. The potent inhibitors were selected to assess their efficacy against other strains resistant to NNRTIs, including L100I, K103N, Y181C, Y188L, E138K and the double-mutant strain F227L+V106A. The approved drugs NVP, EFV and ETR were selected as reference drugs. The biological evaluation results of the test compounds, presented as EC50 (anti-HIV potency), CC50 (cytotoxicity) and SI (selectivity index, CC50/EC50 ratio), are summarized in Table 1 and Table 2.
(§5) The antiviral potential and cytotoxic effects of the target compounds were assessed using the MTT assay in MT-4 cells, following established protocols. The HIV-1 (IIIB) strain, single mutant strains (L100I, K103N, Y181C, Y188L and E138K), double mutant strains (F227L + V106A and K103N + Y181C) and MT-4 cells were provided by the Rega Institute of Medicine at the University of Leuven, Belgium. These viral strains were propagated in MT-4 cells. The MT-4 cells were cultured in RPMI-1640 medium supplemented with 20 mM HEPES buffer (Life Technologies, Grand Island, NY, USA), 10% (v/v) heat-inactivated fetal calf serum (FCS), 2 mM L-glutamine, 0.1% sodium bicarbonate, and 20 μg/mL gentamicin. Cultures were maintained at 37 °C in a 5% CO2 atmosphere. The specific experimental procedures are detailed below.
(§6) Initially, concentrated solutions of the test compounds were prepared at 10-fold the final desired concentration and added to triplicate wells in 25 µL aliquots to assess their impacts on both mock and HIV-infected MT-4 cells. Using a Biomek 3000 robot, these were diluted in a 96-well flat-bottomed microplate by mixing with medium, creating a series of 5-fold steps down in concentration. Each test included control groups of untreated infected and mock-infected cells to establish baselines for comparison. We introduced HIV-1 strains, both wild-type (IIIB) and drug-resistant variants harboring mutations L100I, K103N, Y181C, Y188L, E138K and F227L + V106A and the double mutant K103N + Y181C (RES056), at concentrations of 100–300 CCID50, into their respective wells. These strains served to mimic both typical and resistant infections. Additionally, mock-infected wells received an equal volume of culture medium to assess the compounds’ impacts on uninfected cells, thereby determining cytotoxicity. MT-4 cells in the exponential growth phase were pelleted by centrifugation at 1000 rpm for 5 min, after which the supernatant was removed. The cells were resuspended to a density of 6 × 10^5 cells/mL, and 50 µL of this suspension was added to each well. Post-infection, on the fifth day, cell viability in both mock and infected conditions was measured via the MTT assay using a spectrophotometer. The CC50 was identified as the concentration of the compound that caused a 50% reduction in the viability of the mock-infected cells, indicating cytotoxicity. Conversely, the EC50 represented the concentration that provided 50% protection against viral cytopathic effects in infected cells, signifying antiviral potency.

[3] = tested on: HIV-1 double-mutant strain K103N+Y181C (RES056); experiment: microbe, parasite or virus in culture; type: cell-based; details: for EC50: Human immunodeficiency virus 1, MT4, read-out: EC50 RES056; for SI RES056: selectivity index, ratio CC50/EC50, RES056
Description: as §1, §2, §3

[4] = tested on: HIV-1 E138K mutant strain; experiment: Anti-HIV activity in MT-4 cells (MTT method), E138K; type: cell-based; details: Human immunodeficiency virus 1, MT4, read-out: EC50 E138K
Source text: as §4, §5, §6

[5] = Cytotoxicity in mock-infected MT-4 cells (MTT method); type: cell-based; details: human
Description: as §5, §6

[6] = tested on: HIV-1 Y188L mutant strain; experiment: Anti-HIV activity in MT-4 cells (MTT method), Y188L; type: cell-based; details: Human immunodeficiency virus 1, MT4, read-out: EC50 Y188L
Source text: as §4, §5, §6

[7] = tested on: HIV-1 double-mutant strain F227L+V106A; experiment: Anti-HIV activity in MT-4 cells (MTT method), F227L+V106A; type: cell-based; details: Human immunodeficiency virus 1, MT4, read-out: EC50 F227L/V106A
Source text: as §4, §5, §6

[8] = tested on: HIV-1 Y181C mutant strain; experiment: Anti-HIV activity in MT-4 cells (MTT method), Y181C; type: cell-based; details: Human immunodeficiency virus 1, MT4, read-out: EC50 Y181C
Source text: as §4, §5, §6

[9] = tested on: HIV-1 K103N mutant strain; experiment: Anti-HIV activity in MT-4 cells (MTT method), K103N; type: cell-based; details: Human immunodeficiency virus 1, MT4, read-out: EC50 K103N
Source text: as §4, §5, §6

[10] = reduces viability of mock-infected MT-4 cell cultures by 50%, MTT method, read-out: CC50

Compound	EC50 [1]	EC50 [2]	EC50 [3]	EC50 [4]	CC50 at 5 days [5, 10]	EC50 [6]	EC50 [7]	EC50 [8]	EC50 [9]	SI IIIB [1]	melting point	SI RES056 [3]	CC50 at 5 days ([5]; CC50)
Cc1ccnc2c1NC(=O)c1cccnc1N2C1CC1 [NVP, nevirapine, reference compound]	236 ± 114 nM	1740 ± 879 nM	> 15000 nM	181 ± 67 nM	> 15000 nM	9870 ± 2470 nM	7500 ± 2590 nM	8040 ± 1680 nM	4090 ± 3710 nM	–	–	–	–
Cc1cc(C#N)cc(C)c1Oc1nc(Nc2ccc(NC(=O)C(N)Cc3c[nH]c4ccccc34)cc2)nc2ccsc12 (stereo not drawn) [5b]	89 ± 43 nM	–	> 22400 nM	–	–	–	–	–	–	250	224 to 227 °C	<1	22400 ± 560 nM
Cc1cc(C#N)cc(C)c1Oc1nc(Nc2ccc(NC(=O)CN(C)C(=O)OC(C)(C)C)cc2)nc2ccsc12 [5o]	863 ± 253 nM	–	–	–	–	–	–	–	–	7	–	–	5840 ± 1180 nM
Cc1cc(C#N)cc(C)c1Oc1nc(Nc2ccc(NC(=O)[C@H](Cc3cn(C(=O)OC(C)(C)C)cn3)NC(=O)OC(C)(C)C)cc2)nc2ccsc12 [5c]	672 ± 648 nM	–	> 19600 nM	–	–	–	–	–	–	29	236 to 238 °C	<1	19600 ± 720 nM
CNCC(=O)Nc1ccc(Nc2nc(Oc3c(C)cc(C#N)cc3C)c3sccc3n2)cc1 [5j]	242 ± 65 nM	–	> 17300 nM	–	–	–	–	–	–	72	171 to 173 °C	<1	17300 ± 11500 nM
Cc1cc(C#N)cc(C)c1Oc1nc(Nc2ccc(NC(=O)C3CC(O)CN3C(=O)OC(C)(C)C)cc2)nc2ccsc12 (stereo not drawn) [5p]	2580 ± 520 nM	–	–	–	–	–	–	–	–	9	–	–	22500 ± 391 nM
Cc1cc(C#N)cc(C)c1Oc1nc(Nc2ccc(NC(=O)C3CCCN3C(=O)OC(C)(C)C)cc2)nc2ccsc12 (stereo not drawn) [5g]	924 ± 242 nM	–	> 191000 nM	–	–	–	–	–	–	206	236 to 238 °C	<1	191000 nM
O=C1Nc2ccc(Cl)cc2[C@@](C#CC2CC2)(C(F)(F)F)O1 [EFV, efavirenz, reference compound]	6 ± 2 nM	54 ± 36 nM	698 ± 449 nM	10 ± 5 nM	> 6350 nM	280 ± 91 nM	329 ± 228 nM	8 ± 1 nM	132 ± 50 nM	–	–	–	–
Cc1cc(C#N)cc(C)c1Oc1nc(Nc2ccc(NC(=O)[C@@H](CC(C)C)NC(=O)OC(C)(C)C)cc2)nc2ccsc12 [5m]	9860 ± 1180 nM	–	> 208000 nM	–	–	–	–	–	–	>21	–	–	> 208000 nM
Cc1cc(C#N)cc(C)c1Oc1nc(Nc2ccc(NC(=O)C(Cc3c[nH]c4ccccc34)NC(=O)OC(C)(C)C)cc2)nc2ccsc12 (stereo not drawn) [5a]	940 ± 278 nM	–	> 186000 nM	–	–	–	–	–	–	>197	205 to 208 °C	–	> 186000 nM
Cc1cc(C#N)cc(C)c1Oc1nc(Nc2ccc(C#N)cc2)nc(N)c1Br [ETR, etravirine, reference compound]	3 ± 1 nM	–	40 ± 11 nM	9 ± 4 nM	–	21 ± 8 nM	9 ± 4 nM	15 ± 5 nM	3 ± 1 nM	–	–	–	> 4610 nM
Cc1cc(C#N)cc(C)c1Oc1nc(Nc2ccc(NC(=O)[C@@H](NC(=O)OC(C)(C)C)C(C)C)cc2)nc2ccsc12 [5f]	848 ± 247 nM	–	> 213000 nM	–	–	–	–	–	–	>251	158 to 160 °C	–	> 213000 nM
Cc1cc(C#N)cc(C)c1Oc1nc(Nc2ccc(NC(=O)[C@H](Cc3ccccc3)NC(=O)OC(C)(C)C)cc2)nc2ccsc12 [5d]	771 ± 236 nM	–	> 197000 nM	–	–	–	–	–	–	>256	220 to 222 °C	–	> 197000 nM
